Assays:
hOATP1B1 = target: T1, hOATP1B1 (Homo sapiens, UniProt Q9Y6L6); assay: Substrates uptake assay, HEK293A-OATP1B1 cells (3H-ES); format: in vitro ADME; details: for Transport activity of OATP1B1 (main text: percentage inhibition): negative control = 100%
T1 sequence (Q9Y6L6 1-691): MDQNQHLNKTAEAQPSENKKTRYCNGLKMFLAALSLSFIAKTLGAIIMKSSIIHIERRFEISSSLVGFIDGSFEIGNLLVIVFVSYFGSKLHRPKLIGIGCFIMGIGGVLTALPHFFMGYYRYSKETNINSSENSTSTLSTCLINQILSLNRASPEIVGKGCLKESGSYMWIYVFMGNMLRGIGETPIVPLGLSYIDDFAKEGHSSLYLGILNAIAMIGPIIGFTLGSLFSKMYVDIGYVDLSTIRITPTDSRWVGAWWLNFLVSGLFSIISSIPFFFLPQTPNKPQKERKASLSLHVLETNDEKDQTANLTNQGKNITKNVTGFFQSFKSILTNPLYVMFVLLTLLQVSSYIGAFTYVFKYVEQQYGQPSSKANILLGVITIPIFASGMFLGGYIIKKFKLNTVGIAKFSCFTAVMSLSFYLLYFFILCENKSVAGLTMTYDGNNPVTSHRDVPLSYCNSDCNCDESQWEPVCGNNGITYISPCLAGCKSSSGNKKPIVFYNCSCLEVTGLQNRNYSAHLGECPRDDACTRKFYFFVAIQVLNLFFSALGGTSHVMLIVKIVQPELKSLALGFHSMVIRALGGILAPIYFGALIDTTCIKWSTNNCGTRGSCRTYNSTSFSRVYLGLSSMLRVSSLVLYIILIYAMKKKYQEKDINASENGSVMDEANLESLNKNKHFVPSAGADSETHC
Source text: Drug transporters mediate the cellular uptake and efflux of their substrates. Therefore, cell lines overexpressing a drug transporter can be utilized to investigate inhibitors of the transporter by assessing changes in substrate uptake. For each drug transporter, we selected a well-characterized inhibitor as the positive control. Radiolabeled substrates were used to indicate the decrease in transport efficiency when the drug transporters were inhibited by PDQ or the control inhibitors.
The concentrations of the control drugs and the substrates were stated in the assay details. Working solutions of the control inhibitors, the radiolabeled substrates, and each dose of PDQ were prepared at 200 times (200×) more concentrated solutions with DMSO for further dilution.
Transporter-overexpressed cell lines. Human organic anion transporter-overexpressed cell lines MDCKII-OAT1 and S2-OAT3, human organic anion transport polypeptide-overexpressed cell lines HEK293A-OATP1B1 and HEK293A-OATP1B3, human organic cation transporter 2-overexpressed cell line S2-OCT2, and human multi-drug resistance protein MDR1 (or P-gp)-overexpressed cell line MDCKII-MDR1 were gifts from Japan Fuji Biomedical Co., Ltd. (Fuji, Shizuoka Prefecture, Japan). Breast cancer resistance protein-overexpressed vesicles (sf9-BCRP vesicle) were purchased from GenoMembrane Co., Ltd. (Yokohama, Kanagawa, Japan).
Substrates uptake assay. In this assay, we studied the inhibition of PDQ against transporters OAT1, OAT3, OCT2, OATP1B1 and OATP1B3 with MDCKII-OAT1, S2-OAT3, S2-OCT2, HEK293A-OATP1B1and HEK293A-OATP1B3 cells, respectively. The radiolabeled substrates for OAT1, OAT3, OATP1B1, OATP1B3 and OCT2 were […], respectively (Table 5). Probenecid ([…]) was the positive control inhibitor of OAT1 and OAT3, while rifampicin ([…]) served as the control drug of OATP1B1 and OATP1B3. For OCT2, we used […] cimetidine to compare with the inhibitory effect of PDQ. Two times (2×) more concentrated working solutions of the drugs and the substrate were prepared with Dulbecco’s phosphate-buffered saline (DPBS, Gibco, Grand Island, NY, USA.). Then, an equal volume of 2× drug solution and 2× radiolabeled substrate solution were mixed as the working mix. All reagents were pre-warmed to 37 °C.
The cells were digested with 0.05% trypsin/EDTA. The density of the single-cell suspension was adjusted to 2.0 × 10^5 cells/mL for S2 cells and to 1.5 × 10^5 cells/mL for MDCK II and HEK293A cells. The cell suspension was then added to the reservoirs of the 24-well plate for culture until full confluency. The medium in the wells was removed, and the wells were washed with DPBS. Then, the plate was incubated for 10 min with pre-warmed DPBS in the wells. After removing DPBS, […] of working mix was added to each well to initiate the substrate uptake process. The reaction time was 5 min for S2-OCT2 cells, while the other four types of cells were incubated with the reaction mix for 2 min. Cold DPBS was used to terminate the substrate transportation. To each well, […] NaOH ([…]) was added to lyse the cells. Then, […] cell lysate was transferred to the counting vials, and 3 mL scintillation cocktail (Aquasol-2, PerkinElmer, Waltham, MA, USA) was added. […] Each sample was replicated three times (N = 3).
In = [100 × (U − U0)/(Uc − U0)]%(3)
The results were expressed as mean ± standard deviation (SD) and analyzed with GraphPad Prism 8.0 software (CA, USA). The IC50 of PDQ was curve-fitted with the FORECAST function. Statistical significance was calculated using a two-tailed test, and a p value < 0.05 was considered as significant.

[1] = cited from earlier work

In the case of CC(C)(O)[C@@H]1CC[C@@](C)([C@H]2CC[C@]3(C)[C@@H]2[C@H](O)C[C@@H]2[C@@]4(C)CC[C@H](O)C(C)(C)[C@@H]4CC[C@]23C)O1 [PDQ, (20S,24S)-dammar-20,24-epoxy-3β, 12β, 25-triol], the “DPM (3H-ES uptake by OATP1B1)” value (hOATP1B1; inhibitor 0.1 μM) is reported as 15255.0±875.8 DPM, the “Transport activity of OATP1B1 (main text: percentage inhibition)” value (hOATP1B1; inhibitor 0.1 μM) is reported as 100.9±5.8% and the “DPM (3H-ES uptake by OATP1B1)” value (hOATP1B1; inhibitor 0.3 μM) is reported as 16354.0±875.5 DPM. The “Transport activity of OATP1B1 (main text: percentage inhibition)” value (hOATP1B1; inhibitor 0.3 μM) was 108.1±5.8%, the “DPM (3H-ES uptake by OATP1B1)” value (hOATP1B1; inhibitor 1 μM) was 14584.0±689.5 DPM and the “Transport activity of OATP1B1 (main text: percentage inhibition)” value (hOATP1B1; inhibitor 1 μM) was 96.4±4.6%. For the same molecule, the “DPM (3H-ES uptake by OATP1B1)” value (hOATP1B1; inhibitor 3 μM) was 13110.3±561.2 DPM, the “Transport activity of OATP1B1 (main text: percentage inhibition)” value (hOATP1B1; inhibitor 3 μM) was 86.7±3.7% and the “DPM (3H-ES uptake by OATP1B1)” value (hOATP1B1; inhibitor 10 μM) was 8070.3±754.4 DPM. The “Transport activity of OATP1B1 (main text: percentage inhibition)” value (hOATP1B1; inhibitor 10 μM) was 53.4±5.0%, the “DPM (3H-ES uptake by OATP1B1)” value (hOATP1B1; inhibitor 30 μM) was 5983.3±318.4 DPM and the bioavailability ([1]; PDQ in gattate pills) was 62.13%. For the same molecule, the “biological half-time (t1/2)” value ([1]; rat plasma) was 5.97 ± 0.43 h, the “concentration at peak (Cmax)” value ([1]; rat plasma) was 3265.12 ± 700.26 ng/mL and the “time to peak (Tmax)” value ([1]; rat plasma) was 4.0 ± 0.0 h. The Cmax ([1]; rats, effective oral dosage 15 mg/kg, no reference given, read-out: peak concentration (Cmax)) was 6.5 µM, the “cumulative amount excreted through feces” value ([1]; rats, over 96 h) was 55.39% and the “long-term accumulation in tissues” value ([1]; rats, single oral dose of 30.0 mg/kg) was “no long-term accumulation”.

— paper PMC11173382, “In Vitro Investigations into the Potential Drug Interactions of Pseudoginsenoside DQ Mediated by Cytochrome P450 and Human Drug Transporters” (Molecules, 2024)
